Legend:
[1] = test system: human CD3+ T cells; settings: T cells pre-incubated with 0.01 μM to 10 mM AMD3100; tumor cells in Transwell; harvest after 3 h
Protocol: For quantitative transmigration assays, purified human CD3^+ T cells (approximately 2×10^4 cells) are added to the upper chamber of a Transwell® insert in each well, to a total volume of 150 μl of Iscove's modified medium.
To determine the anti-fugetactic concentration of AMD3100, the T cells are incubated with 0.01 μM to 10 mM AMD3100 prior to addition to the chamber.
Cells are harvested from the lower chamber after 3 h, and cell counts are performed using a hemocytometer.

[2] = test system: human CD3+ T cells; settings: CI of 1.0 is the control, triplicate wells
Protocol: Freshly prepared and purified human CD3^+ T cells were prepared from healthy donor peripheral blood. 20,000 T cells were loaded into the upper chamber of the Transwell in control, chemotactic or fugetactic settings with AMD3100 at concentrations between 0.1 μM and 10 μM. Migrated cells were counted in the lower chamber and migration quantitated as previously described. Vianello et al. The Journal of Immunology, 2006, 176: 2902-2914; Righi et al., Cancer Res.; 71(16); 5522-34, each of which is incorporated herein in its entirety.
We saw clear evidence of binary or bimodal chemotactic (FIG. 1; CI 2.3 at 1 μM) and fugetactic (FIG. 2; CI=1.6 at 0.1 μM) responses of human CD3+ T cells to AMD3100 (where a CI or chemotactic index of 1.0 is the control). All wells were run in triplicate.

c1cc(CN2CCCNCCNCCCNCC2)ccc1CN1CCCNCCNCCCNCC1 [AMD3100, 1,1′-[1,4-phenylenebis(methylene)]bis [1,4,8,11-tetraazacyclotetradecane]]
effect on T cell migration (anti-fugetactic at lower, fugetactic at higher concentrations) [1]: bimodal effect
CI (chemotactic index), chemotactic response ([2]; chemotactic setting, AMD3100 at 1 μM, FIG. 1): 2.3
CI (chemotactic index), fugetactic response ([2]; fugetactic setting, AMD3100 at 0.1 μM, FIG. 2): 1.6
